Counter-ions that a name gives are not always drawn. Marks after values point to notes of the source that are not given here.
Assays:
[1] = target: T1, chimeric M4R (RGLG-2) (Homo sapiens, UniProt P08173); test: BRET assay of the invention, cells co-expressing chimeric M4R (RGLG-2) and FP-Gγ9; type: cell-based; conditions: for Invention assay % stim: compound tested alone; for Invention assay % enh: in presence of EC20 value of Ach; for Invention assay % inh: in presence of EC80 of Ach; for activation of the chimeric M4R (BRET): increasing concentrations of ligand
T1 construct: ID; NOs; expressed in transfected cells
T1 sequence (P08173 with tags, fused parts or gaps): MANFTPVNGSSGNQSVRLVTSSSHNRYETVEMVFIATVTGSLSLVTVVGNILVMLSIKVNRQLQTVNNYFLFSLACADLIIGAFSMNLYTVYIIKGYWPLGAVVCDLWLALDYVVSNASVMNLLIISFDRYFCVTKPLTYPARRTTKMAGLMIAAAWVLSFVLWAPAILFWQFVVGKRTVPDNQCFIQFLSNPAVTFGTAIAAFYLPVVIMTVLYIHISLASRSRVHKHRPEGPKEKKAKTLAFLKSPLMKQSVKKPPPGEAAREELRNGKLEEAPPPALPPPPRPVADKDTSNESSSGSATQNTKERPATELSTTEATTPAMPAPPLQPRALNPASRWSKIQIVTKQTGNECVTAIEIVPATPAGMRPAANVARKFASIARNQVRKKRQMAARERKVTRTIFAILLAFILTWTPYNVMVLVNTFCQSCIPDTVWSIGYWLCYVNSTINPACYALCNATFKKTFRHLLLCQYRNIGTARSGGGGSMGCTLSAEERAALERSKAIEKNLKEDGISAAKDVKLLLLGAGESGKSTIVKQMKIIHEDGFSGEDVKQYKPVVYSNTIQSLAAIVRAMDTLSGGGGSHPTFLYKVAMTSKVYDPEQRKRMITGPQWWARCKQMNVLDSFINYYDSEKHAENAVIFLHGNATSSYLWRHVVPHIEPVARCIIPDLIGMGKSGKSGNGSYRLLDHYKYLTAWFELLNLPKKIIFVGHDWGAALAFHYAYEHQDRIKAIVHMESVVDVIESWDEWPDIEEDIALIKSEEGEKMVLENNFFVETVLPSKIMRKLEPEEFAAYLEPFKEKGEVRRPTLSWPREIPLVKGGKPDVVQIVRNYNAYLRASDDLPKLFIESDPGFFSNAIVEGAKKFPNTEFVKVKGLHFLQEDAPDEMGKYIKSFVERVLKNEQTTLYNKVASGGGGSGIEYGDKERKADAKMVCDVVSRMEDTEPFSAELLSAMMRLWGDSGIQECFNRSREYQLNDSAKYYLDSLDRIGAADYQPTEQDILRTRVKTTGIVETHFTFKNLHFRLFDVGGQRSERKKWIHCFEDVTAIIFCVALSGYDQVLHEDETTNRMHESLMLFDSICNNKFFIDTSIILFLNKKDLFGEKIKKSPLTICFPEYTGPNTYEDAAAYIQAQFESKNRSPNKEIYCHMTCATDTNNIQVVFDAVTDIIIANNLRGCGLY
Method: The same cells as described for FIG. 10 A were used. […] The decrease of the signal below baseline in the PTX-treated condition confirms a constitutive activity that has been described for the M4R. […]
A typical experiment has the following sequence.
(§1) The assay of the present invention was compared with a state of the art calcium based assay. […] In calcium-based assay, a calcium flux is measured in cells co-expressing recombinant M4R and modified Gαq. In the assay in accordance with the present invention, BRET in measured in cells co-expressing a chimeric M4R according to RGLG-2 (construct and cell-line from FIG. 2C, Table 6) and FP-Gγ9 (as described in FIG. 10A). The data represent mean values and they are normalized to the maximal effect of the orthosteric agonist after the subtraction of the basal values.

[2] = target: T2, M4R (Homo sapiens, UniProt P08173); test: Calcium-based assay, calcium flux in cells co-expressing recombinant M4R and modified Gαq; type: cell-based; conditions: for Calcium-based assay % stim: compound tested alone; for Calcium-based assay % enh: in presence of EC20 value of Ach; for Calcium-based assay % inh: in presence of EC80 of Ach
T2 construct: expressed in transfected cells
T2 sequence (P08173 1-479): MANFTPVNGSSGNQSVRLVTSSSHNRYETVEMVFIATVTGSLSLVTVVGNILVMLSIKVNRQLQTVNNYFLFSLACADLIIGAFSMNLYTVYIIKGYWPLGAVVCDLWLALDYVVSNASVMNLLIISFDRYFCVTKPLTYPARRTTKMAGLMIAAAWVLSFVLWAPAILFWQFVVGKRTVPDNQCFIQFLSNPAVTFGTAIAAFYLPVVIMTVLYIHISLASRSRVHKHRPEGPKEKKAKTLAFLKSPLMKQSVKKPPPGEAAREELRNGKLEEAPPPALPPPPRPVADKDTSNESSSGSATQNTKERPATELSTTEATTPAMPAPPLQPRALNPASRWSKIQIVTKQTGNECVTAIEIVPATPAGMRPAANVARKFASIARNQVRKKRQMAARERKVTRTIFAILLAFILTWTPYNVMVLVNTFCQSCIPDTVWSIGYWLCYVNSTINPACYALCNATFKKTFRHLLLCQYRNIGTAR
Method: as §1

[3] = activity @ 30uM or 30 ug/ml, normalized to maximal effect of the orthosteric agonist

Invention assay % stim ([1]; * @ 3uM or 3 ug/ml)	Invention assay % enh ([1]; * @ 3uM or 3 ug/ml)	Invention assay % inh ([1]; * @ 3uM or 3 ug/ml)	Calcium-based assay % stim ([2]; * @ 3uM or 3 ug/ml)	Compound	Invention assay % stim [1, 3]	Invention assay % enh [1, 3]	Invention assay % inh [1, 3]	Calcium-based assay % stim [2, 3]	Calcium-based assay % enh [2, 3]	Calcium-based assay % inh [2, 3]	Calcium-based assay % enh ([2]; * @ 3uM or 3 ug/ml)	activation of the chimeric M4R (BRET) [1]
				COC(=O)C1=C(C)NC(C)=C(C(=O)OC)C1c1ccccc1[N+](=O)[O-] [Nifedipine]	−15.8%	5.3%	23.2%	−0.9%	8.7%	34.8%		
				COC(=O)C1=C(C)NC(C)=C([N+](=O)[O-])[C@H]1c1ccccc1C(F)(F)F [(S)-(−)-Bay K 8644]	−8.0%	−3.6%	14.6%	16.1%	59.8%	−65.0%		
				C=C[C@@]1(C)CC(=O)[C@]2(O)[C@@]3(C)[C@@H](O)CCC(C)(C)[C@@H]3[C@H](O)[C@H](OC(C)=O)[C@@]2(C)O1 [FSK]	−5.0%	−3.6%	11.8%	57.8%	58.3%	−22.4%		
				Thapsigargin	−0.7%	−4.2%	10.8%	129.5%	49.8%	11.6%		
−0.8* %	−1.2* %	15.8* %	8.1* %	CN([C@@H](Cc1ccc(OS(=O)(=O)c2cccc3cnccc23)cc1)C(=O)N1CCN(c2ccccc2)CC1)S(=O)(=O)c1cccc2cnccc12 [KN-62]							39.4* %	
				COc1nc2sc(C(=O)NC3CC3)c(N)c2c(C)c1Cl [LY2033298]								activation
				CCOC(=O)C1=C(C)NC(=S)NC1c1cccc(O)c1 (stereo not shown) [Monastrol]	−3.0%	−0.1%	7.0%	4.1%	44.7%	−16.7%		
				NCCOB(c1ccccc1)c1ccccc1 [2-APB]	−4.7%	6.3%	10.5%	3.7%	4.8%	30.3%		
				CC[C@H]1/C=C/C=C/C[C@@H](C)[C@H](O)[C@@](C)(O)C(=O)[C@@H](C)[C@H](O)[C@@H](C)C(=O)[C@@H](C)[C@H](O)[C@@H](C)/C=C/C(=O)O[C@@H]2[C@H](C)[C@H](CC1)O[C@]1(CC[C@H](C)[C@H](C[C@@H](C)O)O1)[C@H]2C [Oligomycin]	1.8%	3.3%	8.5%	3.3%	63.8%	−21.6%		
				C[C@H](CCC(=O)O)C[C@H](C)C[C@H](C)C(=O)/C=C(\O)[C@H](C)C[C@H](C)C/C=C/[C@@H](C)[C@@H](O)[C@@H](C)[C@@H](O)C[C@@H]1CC[C@@](C)([C@H]2CC[C@@](C)([C@@H](C)O)O2)O1 [Ionomycin calcium salt]	−11.8%	−2.5%	14.6%	488.7%		112.2%	58.8* %	
				Cc1ccc2c(c1)C(=O)C1(O)CCN(c3ccccc3)C1=N2 (racemic) [(±)-Blebbistatin]	−7.2%	−2.4%	13.1%	130.0%	115.1%	−46.9%		
				CCCCCC(O)/C=C/C=O (stereo not shown) [4-Hydroxynonenal]	−14.9%	−3.5%	29.9%	1.4%	−7.3%	118.9%		
				Nc1ncnc2c1ncn2[C@@H]1O[C@H](COP(=O)(O)OP(=O)(O)OP(=O)(O)O)[C@@H](O)[C@H]1O [ATP]								lack of activation

From patent US20130035256A1, “Chimeric Polypeptides Useful in Proximal and Dynamic High-Throughput Screening Methods” (ADDEX PHARMA SA, priority 2010, published 2013)
